Measured values taken from ChEMBL document CHEMBL3997846, “Synthesis and activity of nucleoside-based antiprotozoan compounds” (Bioorg Med Chem, 2017).

How the values were obtained:
[1] = tested on: Trypanosoma brucei rhodesiense; experiment: Antitrypanosomal activity against bloodstream forms of Trypanosoma brucei rhodesiense STIB900 trypomastigotes after 72 hrs by alamar blue assay; type: functional; details: STIB900, 72 h
[2] = Selectivity index, ratio of IC50 for rat L6 cells to IC50 for bloodstream forms of Trypanosoma brucei rhodesiense STIB900 trypomastigotes; type: toxicity; details: read-out: Ratio IC50
[3] = tested on: Trypanosoma cruzi; experiment: Antitrypanosomal activity against Trypanosoma cruzi Tulahuen strain C2C4 amastigote forms harboring LacZ infected in rat L6 cells after 96 hrs by CPRG/Nonidet reagent based photometric method; type: functional, cell-based; details: Tulahuen strain C2C4, L6, 96 h
[4] = Selectivity index, ratio of IC50 for rat L6 cells to IC50 for Trypanosoma cruzi Tulahuen strain C2C4 amastigote forms harboring LacZ infected in rat L6 cells; type: toxicity, cell-based; details: read-out: Ratio IC50
[5] = tested on: Leishmania donovani; experiment: Antileishmanial activity against Leishmania donovani MHOM/SD/62/ISCL2D axenic amastigotes after 72 hrs by alamar blue assay; type: functional
[6] = Selectivity index, ratio of IC50 for rat L6 cells to IC50 for Leishmania donovani MHOM/SD/62/ISCL2D axenic amastigotes; type: toxicity; details: read-out: Ratio IC50
[7] = tested on: L6; experiment: Cytotoxicity against rat L6 cells assessed as growth inhibition after 72 hrs by alamar blue assay; type: cell-based; details: L6, 72 h
[8] = tested on: Plasmodium falciparum; experiment: Antiplasmodial activity against chloroquine resistant Plasmodium falciparum K1 erythrocytic stage assessed as reduction in [3H]hypoxanthine incorporation after 48 hrs by liquid scintillation counting assay; type: functional
[9] = Selectivity index, ratio of IC50 for rat L6 cells to IC50 for chloroquine resistant Plasmodium falciparum K1 erythrocytic stage; type: toxicity; details: read-out: Ratio IC50

SMILES | IC50 [1] [µM] | selectivity ratio [2] | IC50 [3] [µM] | selectivity ratio [4] | IC50 [5] [µM] | selectivity ratio [6] | IC50 [7] [µM] | IC50 [8] [µM] | selectivity ratio [9]
CNc1nc(I)nc2c1ncn2[C@@H]1O[C@H](CSC)[C@@H](O)[C@H]1O | 21 | 6 | 104 | 1 | 101 | 1 |  |  | 
CC(=O)O[C@@H]1[C@H](OC(C)=O)[C@@H](CN=[N+]=[N-])O[C@H]1n1cnc2c(N)nc(F)nc21 | 23 | 0.8 | 39 | 0.5 | 33 | 0.5 | 18 | 1.5 | 12
CSC[C@H]1O[C@@H](n2cnc3c(N)nc(Cl)nc32)[C@H](OC(C)=O)[C@@H]1OC(C)=O | 31 | 7 | 161 | 1 | 39 | 6 | 216 | 12 | 18
C[S+]([O-])C[C@H]1O[C@@H](n2cnc3c(N)nc(F)nc32)[C@H](O)[C@@H]1O (some centres not stated) | 34 | 0.4 | 74 | 0.2 | 33 | 0.4 | 13 | 5.8 | 2
CNc1nc(I)nc2c1ncn2[C@@H]1O[C@H](C)[C@@H](O)[C@H]1O | 49 | 3 | 126 | 1 | 199 | 0.7 |  |  | 
CC(=O)O[C@@H]1[C@H](OC(C)=O)[C@@H](C[S+](C)[O-])O[C@H]1n1cnc2c(N)nc(Cl)nc21 (some centres not stated) | 106 | 2 | 106 | 2 | > 230 | < 0.7 | 168 | 106 | 2
C[C@H]1O[C@@H](n2cnc3c(N)nc(N)nc32)[C@H](O)[C@@H]1O | 224 | 2 | > 340 | < 1 | 51 | 7 |  |  | 
CS(=O)(=O)C[C@H]1O[C@@H](n2cnc3c(N)nc(F)nc32)[C@H](O)[C@@H]1O | 17 | 0.3 | 35 | 0.1 | 37 | 0.1 | 5 | 8 | 0.6
CNc1ncnc2c1ncn2[C@@H]1O[C@H](CSC)[C@@H](O)[C@H]1O | 16 | 10 | 191 | 0.8 | > 320 | < 0.5 |  |  | 
CC(=O)NC[C@H]1O[C@@H](n2cnc3c(N)nc(Cl)nc32)[C@H](OC(C)=O)[C@@H]1OC(C)=O | 113 | 2 | 125 | 2 | > 230 | < 0.8 | 190 | 102 | 2
CC(=O)O[C@@H]1[C@H](OC(C)=O)[C@@H](CI)O[C@H]1n1cnc2c(N)nc(Cl)nc21 | 12 | 7 | 10 | 9 | 15 | 6 | 86 | 3.9 | 22
O=C(Cn1ccnc1[N+](=O)[O-])NCc1ccccc1 [BENZNIDAZOLE] |  |  | 1.64 |  |  |  | > 385 |  | 
C[S+]([O-])C[C@H]1O[C@@H](n2cnc3c(N)nc(Cl)nc32)[C@H](O)[C@@H]1O (some centres not stated) | 75 | 3 | > 260 | < 1 | > 260 | < 1 | 259 | 14 | 18
CC(=O)NC[C@H]1O[C@@H](n2cnc3c(N)nc(Cl)nc32)[C@H](O)[C@@H]1O | 79 | 2 | 174 | 1 | > 280 | < 0.7 | 189 | 88 | 2
C[C@H]1O[C@@H](n2cnc3c(N)nc(F)nc32)[C@H](O)[C@@H]1O | 65 | < 0.1 | 7.1 | 0.3 | 0.88 | 2 |  |  | 
C[C@H]1O[C@@H](n2cnc3c(N)nc(NN)nc32)[C@H](O)[C@@H]1O | 132 | 1 | 147 | 1 | 73 | 3 |  |  | 
Nc1nc([Se][Se]c2nc(N)nc3c2ccn3[C@@H]2O[C@H](CO)[C@@H](O)[C@H]2O)c2ccn([C@@H]3O[C@H](CO)[C@@H](O)[C@H]3O)c2n1 | 9.6 | 3 | 21 | 1 | > 145 | < 0.2 | 24 | 20.5 | 1
CNc1nc(F)nc2c1ncn2[C@@H]1O[C@H](C)[C@@H](O)[C@H]1O | 194 | 1 | 20 | 12 | > 353 | 0.7 |  |  | 

SMILES | IC50 [1] [µM] | selectivity ratio [2] | IC50 [3] [µM] | selectivity ratio [4] | IC50 [5] [µM] | selectivity ratio [6] | IC50 [7] [µM] | IC50 [8] [µM] | selectivity ratio [9]
CNc1ncnc2c1ncn2[C@@H]1O[C@H](C)[C@@H](O)[C@H]1O | 206 | 1 | 195 | 1 | > 380 | < 0.7 |  |  | 
C[C@H]1O[C@@H](n2cnc3c(N)nc(I)nc32)[C@H](O)[C@@H]1O | 27 | 4 | 120 | 0.9 | 208 | 0.5 |  |  | 
CSC[C@H]1O[C@@H](n2cnc3c(N)nc(C#N)nc32)[C@H](O)[C@@H]1O | 66 | 2 | 150 | 1 | 266 | 0.6 |  |  | 
CSC[C@H]1O[C@@H](n2cnc3c(/N=C/N(C)C)nc(F)nc32)[C@H](O)[C@@H]1O | 62 | < 0.1 | 114 | < 0.1 | 2.5 | 0.6 |  |  | 
CSC[C@H]1O[C@@H](n2cnc3c(N)nc(I)nc32)[C@H](O)[C@@H]1O | 5 | 27 | 88 | 2 | 132 | 1 |  |  | 
CSC[C@H]1O[C@@H](n2cnc3c(N)nc(Cl)nc32)[C@H](O)[C@@H]1O | 203 | 1 | > 270 | < 1 | 60 | 5 |  |  | 
CNc1nc(C#N)nc2c1ncn2[C@@H]1O[C@H](C)[C@@H](O)[C@H]1O | 111 | 0.8 | 45 | 2 | 148 | 0.6 |  |  | 
CNc1nc(C#N)nc2c1ncn2[C@@H]1O[C@H](CSC)[C@@H](O)[C@H]1O | 30 | 0.8 | 25 | 1 | 22 | 1 |  |  | 
CSC[C@H]1O[C@@H](n2cnc3c(N(C)N=O)nc(F)nc32)[C@H](O)[C@@H]1O | 56 | 2 | 129 | 0.9 | 190 | 0.6 |  |  | 
C[C@H]1O[C@@H](n2cnc3c(N)nc(C#N)nc32)[C@H](O)[C@@H]1O | 79 | 2 | 144 | 1 | 100 | 2 |  |  | 
CCN(CC)CCCC(C)Nc1ccnc2cc(Cl)ccc12 (configuration not stated) [CHLOROQUINE] |  |  |  |  |  |  | 91 |  | 
C[C@H]1O[C@@H](n2cnc3c(N)nc(N=[N+]=[N-])nc32)[C@H](O)[C@@H]1O | 137 | 1 | 167 | 1 | 125 | 2 |  |  | 
CCCCCCCCCCCCCCCCOP(=O)([O-])OCC[N+](C)(C)C [MILTEFOSINE] |  |  |  |  | 0.3 |  | 137 |  | 
CSC[C@H]1O[C@@H](n2cnc3c(N)nc(NN)nc32)[C@H](O)[C@@H]1O | 149 | 1 | 157 | 1 | 173 | 1 |  |  | 
C[C@H]1O[C@@H](n2cnc3c(N)nc(Cl)nc32)[C@H](O)[C@@H]1O | 84 | 2 | 189 | 0.8 | 49 | 3 |  |  | 
CSC[C@H]1O[C@@H](n2cnc3c(N)nc(F)nc32)[C@H](O)[C@@H]1O | 4.3 | 0.1 | 2.6 | 0.2 | 0.8 | 0.7 |  |  | 
CSC[C@H]1O[C@@H](n2cnc3c(N)nc(N=[N+]=[N-])nc32)[C@H](O)[C@@H]1O | 51 | 5 | 144 | 2 | 288 | 0.8 |  |  | 
